Target: USP14 (Homo sapiens (Human), UniProt P54578)
Test: Usp14 inhibition assay (Example 57B, B-series compounds)
Assay type: biochemical
Conditions: IC50 class; average value from a minimum of two experimental determinations
Excerpt: Example 57B: Usp14 Inhibition Assay
The IC50 values in the Table below represent the average value from a minimum of two experimental determinations.

Sequence of USP14 (P54578 whole entry, looked up): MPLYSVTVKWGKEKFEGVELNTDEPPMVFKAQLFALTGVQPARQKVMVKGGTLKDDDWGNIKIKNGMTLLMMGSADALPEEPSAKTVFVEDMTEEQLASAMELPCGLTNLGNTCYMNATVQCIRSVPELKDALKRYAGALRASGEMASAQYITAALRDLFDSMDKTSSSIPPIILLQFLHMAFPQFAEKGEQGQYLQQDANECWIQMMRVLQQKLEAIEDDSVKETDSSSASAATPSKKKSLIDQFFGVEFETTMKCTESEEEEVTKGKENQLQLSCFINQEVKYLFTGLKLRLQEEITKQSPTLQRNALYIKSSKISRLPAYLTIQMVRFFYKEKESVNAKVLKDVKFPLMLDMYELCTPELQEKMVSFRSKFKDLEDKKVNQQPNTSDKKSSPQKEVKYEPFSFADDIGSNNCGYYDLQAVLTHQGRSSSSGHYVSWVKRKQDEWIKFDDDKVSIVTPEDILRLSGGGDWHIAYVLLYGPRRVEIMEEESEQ

Row | Compound | IC50
1 | Cc1c(C(=O)CN2C3CCC2[C@@H](O)C3)cc(C[C@H]2C[C@H](C#N)C2)n1-c1ccc(C#N)cc1 (mixture of isomers) [Example 45B, (±)-4-(5-(((1r,3R)-3-Cyanocyclobutyl)methyl)-3-(2-((2R)-2-hydroxy-7-azabicyclo[2.2.1]heptan-7-yl)acetyl)-2-methyl-1H-pyrrol-1-yl)benzonitrile] | < 50 nM
2 | Cc1c(C(=O)CN2C3CCC2[C@@H](O)C3)c(Cl)c(/C=C/CC(C)(C)C#N)n1-c1ccc(C#N)cc1 (mixture of isomers) [Example 46B, (±)-4-(3-Chloro-2-((E)-4-cyano-4-methylpent-1-en-1-yl)-4-(2-((2R)-2-hydroxy-7-azabicyclo[2.2.1]heptan-7-yl)acetyl)-5-methyl-1H-pyrrol-1-yl)benzonitrile] | 50 to 500 nM
3 | Cc1c(C(=O)CN2C3CCC2[C@@H](O)C3)cc(C#N)n1-c1ccc(C#N)cc1 (mixture of isomers) [Example 47B, (±)-1-(4-Cyanophenyl)-4-(2-((2R)-2-hydroxy-7-azabicyclo[2.2.1]heptan-7-yl)acetyl)-5-methyl-1H-pyrrole-2-carbonitrile] | < 50 nM
4 | Cc1c(C(=O)CN2C3CCC2[C@@H](O)C3)cc(CC[Si](C)(C)C)n1-c1ccc(C#N)cc1 (mixture of isomers) [Example 50B, (±)-4-(3-(2-((2R)-2-Hydroxy-7-azabicyclo[2.2.1]heptan-7-yl)acetyl)-2-methyl-5-(2-(trimethylsilyl)ethyl)-1H-pyrrol-1-yl)benzonitrile] | 50 to 500 nM
5 | Cc1c(C(=O)CN2C3CCC2[C@@H](O)C3)cc(CCCC2CC(C)(C)OC2=O)n1-c1ccc(C#N)cc1 (mixture of isomers) [Example 51B, (±)-4-(5-(3-(5,5-Dimethyl-2-oxotetrahydrofuran-3-yl)propyl)-3-(2-((1R,2R,4S)-2-hydroxy-7-azabicyclo[2.2.1]heptan-7-yl)acetyl)-2-methyl-1H-pyrrol-1-yl)benzonitrile] | < 50 nM
6 | Cc1c(C(=O)CN2C3CCC2[C@@H](O)C3)cc(/C=C/CC2CC(C)(C)OC2=O)n1-c1ccc(C#N)cc1 (mixture of isomers) [Example 52B, (±)-4-(5-((E)-3-(5,5-Dimethyl-2-oxotetrahydrofuran-3-yl)prop-1-en-1-yl)-3-(2-((1S,2S,4R)-2-hydroxy-7-azabicyclo[2.2.1]heptan-7-yl)acetyl)-2-methyl-1H-pyrrol-1-yl)benzonitrile] | < 50 nM
7 | Cc1c(C(=O)CN2[C@@H]3CC[C@H]2[C@@H](C)C3)cc(CC2COC2)n1-c1ccc(C#N)cc1 (racemic) [Example 53B, (±)-4-(2-Methyl-3-(2-((1R,2R,4S)-2-methyl-7-azabicyclo[2.2.1]heptan-7-yl)acetyl)-5-(oxetan-3-ylmethyl)-1H-pyrrol-1-yl)benzonitrile] | < 50 nM
8 | Cc1c(C(=O)CN2[C@@H]3CC[C@H]2[C@@H](O)C3)cc(CCC2(C)COC2)n1-c1ccc(C#N)cc1 (racemic) [Example 55B, (±)-4-(3-(2-((1R,2R,4S)-2-Hydroxy-7-azabicyclo[2.2.1]heptan-7-yl)acetyl)-2-methyl-5-(2-(3-methyloxetan-3-yl)ethyl)-1H-pyrrol-1-yl)benzonitrile] | < 50 nM
9 | Cc1c(C(=O)CN2[C@H]3CC[C@@H]2[C@@H](C)C3)cc(CC2COC2)n1-c1ccc(C#N)cc1 (racemic) [Example 56B, (±)-4-(2-Methyl-3-(2-((1R,2S,4S)-2-methyl-7-azabicyclo[2.2.1]heptan-7-yl)acetyl)-5-(oxetan-3-ylmethyl)-1H-pyrrol-1-yl)benzonitrile] | 50 to 500 nM
10 | Cc1c(C(=O)CN2C3CCC2[C@@H](O)C3)cc(C#CC2COC2)n1-c1ccc(C#N)cc1 (mixture of isomers) [Example 57B, (±)-4-(3-(2-((2R)-2-Hydroxy-7-azabicyclo[2.2.1]heptan-7-yl)acetyl)-2-methyl-5-(oxetan-3-ylethynyl)-1H-pyrrol-1-yl)benzonitrile] | 50 to 500 nM
11 | Cc1cc(C(=O)CN2C3CCC2[C@@H](O)C3)c(C)n1-c1ccc(C#N)cc1 (mixture of isomers) [Example 64B, (±)-4-(3-(2-((2R)-2-Hydroxy-7-azabicyclo[2.2.1]heptan-7-yl)acetyl)-2,5-dimethyl-1H-pyrrol-1-yl)benzonitrile] | 50 to 500 nM
12 | CO[C@H]1C[C@H]2CC[C@@H]1N2CC(=O)c1cc(C)n(-c2ccc(C#N)cc2)c1C (racemic) [Example 70B, (±)-4-(3-(2-((1R,2R,4S)-2-Methoxy-7-azabicyclo[2.2.1]heptan-7-yl)acetyl)-2,5-dimethyl-1H-pyrrol-1-yl)benzonitrile] | 50 to 500 nM
13 | Cc1cc(C(=O)CN2[C@@H]3CC[C@H]2[C@@](C)(O)C3)c(C)n1-c1ccc(C#N)cc1 (racemic) [Example 71B, (±)-4-(3-(2-((1R,2R,4S)-2-Hydroxy-2-methyl-7-azabicyclo[2.2.1]heptan-7-yl)acetyl)-2,5-dimethyl-1H-pyrrol-1-yl)benzonitrile] | > 500 nM
14 | Cc1cc(C(=O)CN2[C@@H]3CC[C@H]2[C@](O)(C(C)(C)C)C3)c(C)n1-c1ccc(C#N)cc1 (racemic) [Example 72B, (±)-4-(3-(2-((1R,2S,4S)-2-(tert-Butyl)-2-hydroxy-7-azabicyclo[2.2.1]heptan-7-yl)acetyl)-2,5-dimethyl-1H-pyrrol-1-yl)benzonitrile] | > 500 nM
15 | Cc1cc(C(=O)CN2[C@@H]3CC[C@H]2[C@](O)(C(F)(F)F)C3)c(C)n1-c1ccc(C#N)cc1 (racemic) [Example 73B, (±)-4-(3-(2-((1R,2R,4S)-2-Hydroxy-2-(trifluoromethyl)-7-azabicyclo[2.2.1]heptan-7-yl)acetyl)-2,5-dimethyl-1H-pyrrol-1-yl)benzonitrile] | > 500 nM
16 | Cc1c(C(=O)CN2C3CCC2[C@@H](O)C3)c(C)n(-c2ccc(C#N)cc2)c1C (mixture of isomers) [Example 76B, (±)-4-(3-(2-((2R)-2-Hydroxy-7-azabicyclo[2.2.1]heptan-7-yl)acetyl)-2,4,5-trimethyl-1H-pyrrol-1-yl)benzonitrile] | 50 to 500 nM
17 | Cc1c(Cl)c(C(=O)CN2C3CCC2[C@@H](O)C3)c(C)n1-c1ccc(C#N)cc1 (mixture of isomers) [Example 77B, (±)-4-(3-Chloro-4-(2-((2R)-2-hydroxy-7-azabicyclo[2.2.1]heptan-7-yl)acetyl)-2,5-dimethyl-1H-pyrrol-1-yl)benzonitrile] | 50 to 500 nM
18 | Cc1c(F)c(C(=O)CN2C3CCC2[C@@H](O)C3)c(C)n1-c1ccc(C#N)cc1 (mixture of isomers) [Example 78B, (±)-4-(3-Fluoro-4-(2-((2R)-2-hydroxy-7-azabicyclo[2.2.1]heptan-7-yl)acetyl)-2,5-dimethyl-1H-pyrrol-1-yl)benzonitrile] | 50 to 500 nM
19 | Cc1c(C(=O)CN2C3CCC2[C@@H](O)C3)c(C(F)(F)F)c(C)n1-c1ccc(C#N)cc1 (mixture of isomers) [Example 79B, (±)-4-(3-(2-((2R)-2-Hydroxy-7-azabicyclo[2.2.1]heptan-7-yl)acetyl)-2,5-dimethyl-4-(trifluoromethyl)-1H-pyrrol-1-yl)benzonitrile] | > 500 nM
20 | Cc1cc(C(=O)CN2[C@H]3CCC[C@@H]2[C@H](O)C3)c(C)n1-c1ccc(C#N)cc1 (racemic) [Example 82B, (±)-4-(3-(2-((1S,5R,6R)-6-Hydroxy-8-azabicyclo[3.2.1]octan-8-yl)acetyl)-2,5-dimethyl-1H-pyrrol-1-yl)benzonitrile] | 50 to 500 nM
21 | Cc1cc(C(=O)CN2[C@H]3CCC[C@@H]2[C@@H](O)C3)c(C)n1-c1ccc(C#N)cc1 (racemic) [Example 83B, (±)-4-(3-(2-((1S,5R,6S)-6-Hydroxy-8-azabicyclo[3.2.1]octan-8-yl)acetyl)-2,5-dimethyl-1H-pyrrol-1-yl)benzonitrile] | 50 to 500 nM
22 | Cc1cc(C(=O)CN2C3CCC2[C@@H](O)C3)c(C)n1-c1ccc(C#N)c(F)c1 (mixture of isomers) [Example 90B, (±)-2-Fluoro-4-(3-(2-((2R)-2-hydroxy-7-azabicyclo[2.2.1]heptan-7-yl)acetyl)-2,5-dimethyl-1H-pyrrol-1-yl)benzonitrile] | < 50 nM
23 | Cc1cc(C(=O)CN2C3CCC2[C@@H](O)C3)c(C)n1-c1ccc(C#N)cc1F (mixture of isomers) [Example 91B, (±)-3-Fluoro-4-(3-(2-((2R)-2-hydroxy-7-azabicyclo[2.2.1]heptan-7-yl)acetyl)-2,5-dimethyl-1H-pyrrol-1-yl)benzonitrile] | 50 to 500 nM
24 | Cc1cc(C(=O)CN2C3CC4CC2C(C3)O4)c(C)n1-c1ccc(C#N)cc1 (racemic) [Example 92B, (±)-4-(3-(2-((2R,3aS,5R,6aS)-Hexahydro-4H-2,5-methanofuro[3,2-b]pyrrol-4-yl)acetyl)-2,5-dimethyl-1H-pyrrol-1-yl)benzonitrile] | 50 to 500 nM
25 | Cc1cc(C(=O)CN2C3CCC2[C@@H](O)C3)c(C)n1-c1cc(F)c(C#N)c(F)c1 (mixture of isomers) [Example 94B, (±)-2,6-Difluoro-4-(3-(2-((2R)-2-hydroxy-7-azabicyclo[2.2.1]heptan-7-yl)acetyl)-2,5-dimethyl-1H-pyrrol-1-yl)benzonitrile] | 50 to 500 nM
26 | Cc1c(C#N)c(C(=O)CN2C3CCC2[C@@H](O)C3)c(C)n1-c1ccc(C#N)cc1 (mixture of isomers) [Example 95B, (±)-1-(4-Cyanophenyl)-4-(2-((2R)-2-hydroxy-7-azabicyclo[2.2.1]heptan-7-yl)acetyl)-2,5-dimethyl-1H-pyrrole-3-carbonitrile] | > 500 nM
27 | Cc1c(C(=O)CN2C3CCC2[C@@H](O)C3)cc(Cl)n1-c1ccc(C#N)cc1 (mixture of isomers) [Example 96B, (±)-4-(5-Chloro-3-(2-((2R)-2-hydroxy-7-azabicyclo[2.2.1]heptan-7-yl)acetyl)-2-methyl-1H-pyrrol-1-yl)benzonitrile] | 50 to 500 nM
28 | Cc1c(C(=O)CN2C3CCC2[C@@H](O)C3)c(Cl)c(Cl)n1-c1ccc(C#N)cc1 (mixture of isomers) [Example 97B, (±)-4-(2,3-Dichloro-4-(2-((2R)-2-hydroxy-7-azabicyclo[2.2.1]heptan-7-yl)acetyl)-5-methyl-1H-pyrrol-1-yl)benzonitrile] | 50 to 500 nM
29 | Cc1c(C(=O)CN2C3CCC2[C@@H](O)C3)cc(C2CC2)n1-c1ccc(C#N)cc1 (mixture of isomers) [Example 98B, (±)-4-(5-Cyclopropyl-3-(2-((2R)-2-hydroxy-7-azabicyclo[2.2.1]heptan-7-yl)acetyl)-2-methyl-1H-pyrrol-1-yl)benzonitrile] | 50 to 500 nM

Source: patent publication US11560385B2, “Proteasome activity enhancing compounds” (Proteostasis Therapeutics, Inc., priority 2018, dated 2023)
